Laboratory results reported in patent US9095567B2, “Vaccine formulations” (priority 2010, dated 2015).

How the values were obtained:
Assay in all cases: Preservative effectiveness test, single challenge
Assay type in all cases: cell-based
[1] = system: Staphylococcus aureus (ATCC #6538); details: Prev(e)nar 13 formulation, single challenge, 20 to 25° C.
From the text: (§1) To test for preservative effectiveness, aliquots of vaccine were inoculated with the following organisms:
(§2) Thirty milliliters (ml) of each vaccine formulation with and without Thimerosal or 2-PE at indicated concentrations or saline containing Thimerosal at 0.02% were inoculated in triplicates with a suspension of each test organism to achieve an inoculum density of approximately 10^5 to 10^6 CFU/ml at time 0 (CFU=colony forming units). […] Samples were mixed to ensure even distribution of challenged organisms. Another 30 ml of vaccine in triplicate (with and without preservative) were used as a negative control and spiked with the culture media alone to evaluate the inherent contamination that might be present in the sample or media. Each of the three series of vaccines, and positive and negative controls, was then separately incubated at 20 to 25° C. Aliquots (1 ml) of the challenged samples and controls (or their appropriate serial ten fold dilutions) were enumerated by plate count in duplicates at time 0 and at intervals of 6 hours, 24 hours, 7 days, 14 days and 28 days post-inoculation.
(§3) USP 29 NF 24 Supplement 2 (USP) requires that, after an inoculation of bacterial micro-organism(s), there is at least 1.0 log reduction from the initial calculated count (i.e., at time of inoculation) at 7 days, at least 3.0 log reduction at 14 days from the previous value measured and no increase at 28 days from the previous measured value. For yeast and fungi, the USP requirement is for there to be no increase from the time of inoculation to 7, 14 and 28 days.
(§4) EP requirements are more stringent. EP 5th Edition 5.6 (5.1.3) requirements for parenteral and ophthalmic preparations has two components: Category A and Category B. Category A (EP-A) requires, for bacteria, at least 2.0 log reduction from the initial calculated count at 6 hours after inoculation, at least 3.0 log reduction at 24 hours from the previous measured value, and no recovery at 28 days. Category B (EP-B) requires, for bacteria, at least 1.0 log reduction at 24 hours from the initial calculated count, at least 3.0 log reduction at 7 days from the previous value measured and not more than 0.5 log increase at 28 days from the previous value measured (i.e., no increase). For yeast and fungi, Category A requires at least 2.0 log reduction at 7 days and no increase from the previous value measured at 28 days, and Category B requires at least 1.0 log reduction at 14 days and no increase from the previous value measured at 28 days.
(§5) Plates containing <300 CFU for bacteria or <100 CFU for yeast or mold were used during enumeration. For single challenge studies, arithmetic average count of all surviving micro-organisms in triplicate and on duplicate plates (6 values per time point) plus their diluted samples were measured and normalized as CFU/ml. The results are expressed as mean log10 CFU/ml reduction (compared to time 0). In this case, the count of surviving micro-organisms is evaluated at time 0 as the baseline and compared to incubation time of 6 hours, 24 hours, 7 days, 14 days and 28 days.

[2] = system: Pseudomonas aeruginosa (ATCC #9027); details: Prev(e)nar 13 formulation, 20 to 25° C.
From the text: as §1, §2, §3, §4, §5

[3] = system: Candida albicans (ATCC#10231); details: Prev(e)nar 13 formulation, single challenge, 20 to 25° C.
From the text: as §1, §2, §3, §4, §5

E. coli = details: Prev(e)nar 13 formulation, 20 to 25° C.
From the text: as §1, §2, §3, §4, §5

[4] = system: Aspergillus niger (ATCC #16404); details: Prev(e)nar 13 formulation, single challenge, 20 to 25° C.
From the text: as §1, §2, §3, §4, §5

Compound | EP (EP-B) vaccine safety requirements, S aureus [1] | USP vaccine safety requirements, S aureus [1] | EP (EP-B) vaccine safety requirements, P. aeruginosa [2] | USP vaccine safety requirements, P. aeruginosa [2] | EP (EP-B) vaccine safety requirements, C. albicans [3] | USP vaccine safety requirements, C. albicans [3] | EP (EP-B) vaccine safety requirements, E. coli (E. coli) | USP vaccine safety requirements, E. coli (E. coli) | EP (EP-B) vaccine safety requirements, A. niger [4] | USP vaccine safety requirements, A. niger [4]
Oc1ccccc1 [0.25% phenol, Phenol] | Fails | Meets | Fails | Meets | Meets | Meets | Fails | Meets | Meets | Meets
Cc1cccc(O)c1 [0.3% m cresol, Meta-Cresol] | Fails | Meets | Fails | Meets | Meets | Meets | Fails | Meets | Meets | Meets
